Results taken from ChEMBL document CHEMBL3769371, “1-[(2E)-3-Phenylprop-2-enoyl]-1H-benzimidazoles as anticancer agents: synthesis, crystal structure analysis and binding studies of the most potent anticancer molecule with serum albumin” (Medchemcomm, 2015).

Assays:
[1] = Cytotoxicity against human RPMI8226 cells assessed as cell growth at 10^-5 M after 48 hrs by SRB assay; format: functional; details: RPMI-8226, 48 h, read-out: Activity
[2] = Cytotoxicity against human HOP92 cells assessed as cell growth at 10^-5 M after 48 hrs by SRB assay; format: functional; details: HOP-92, 48 h, read-out: Activity
[3] = Cytotoxicity against human HCC2998 cells assessed as cell growth at 10^-5 M after 48 hrs by SRB assay; format: functional; details: HCC 2998, 48 h, read-out: Activity
[4] = Cytotoxicity against human UACC257 cells assessed as cell growth at 10^-5 M after 48 hrs by SRB assay; format: functional; details: UACC-257, 48 h, read-out: Activity
[5] = Cytotoxicity against human IGROV1 cells assessed as cell growth at 10^-5 M after 48 hrs by SRB assay; format: functional; details: IGROV-1, 48 h, read-out: Activity
[6] = Cytotoxicity against human OVCAR8 cells assessed as cell growth at 10^-5 M after 48 hrs by SRB assay; format: functional; details: OVCAR-8, 48 h, read-out: Activity
ACHN = assay: Cytotoxicity against human ACHN cells assessed as cell growth at 10^-5 M after 48 hrs by SRB assay; format: functional; details: read-out: Activity
[7] = Cytotoxicity against human Caki1 cells assessed as cell growth at 10^-5 M after 48 hrs by SRB assay; format: functional; details: CAKI-1, 48 h, read-out: Activity
[8] = Cytotoxicity against human RXF393 cells assessed as cell growth at 10^-5 M after 48 hrs by SRB assay; format: functional; details: RXF 393, 48 h, read-out: Activity
[9] = Cytotoxicity against human TK10 cells assessed as cell growth at 10^-5 M after 48 hrs by SRB assay; format: functional; details: TK-10, 48 h, read-out: Activity
[10] = Cytotoxicity against human DU145 cells assessed as cell growth at 10^-5 M after 48 hrs by SRB assay; format: functional; details: DU-145, 48 h, read-out: Activity
[11] = Cytotoxicity against human Hs 578T cells assessed as cell growth at 10^-5 M after 48 hrs by SRB assay; format: functional; details: read-out: Activity
T47D = assay: Cytotoxicity against human T47D cells assessed as cell growth at 10^-5 M after 48 hrs by SRB assay; format: functional; details: read-out: Activity
K562 = assay: Cytotoxicity against human K562 cells after 48 hrs by SRB assay; format: functional; details: K562, 48 h
[12] = Cytotoxicity against human MOLT4 cells after 48 hrs by SRB assay; format: functional; details: MOLT-4, 48 h
NCI-H23 = assay: Cytotoxicity against human NCI-H23 cells after 48 hrs by SRB assay; format: functional; details: NCI-H23, 48 h
NCI-H322M = assay: Cytotoxicity against human NCI-H322M cells after 48 hrs by SRB assay; format: functional
[13] = Cytotoxicity against human COLO205 cells after 48 hrs by SRB assay; format: functional; details: COLO 205, 48 h
[14] = Cytotoxicity against human HCC2998 cells after 48 hrs by SRB assay; format: functional; details: HCC 2998, 48 h
[15] = Cytotoxicity against human HCT116 cells after 48 hrs by SRB assay; format: functional; details: HCT-116, 48 h
[16] = Cytotoxicity against human HCT15 cells after 48 hrs by SRB assay; format: functional; details: HCT-15, 48 h
HT-29 = assay: Cytotoxicity against human HT-29 cells after 48 hrs by SRB assay; format: functional; details: HT-29, 48 h
KM12 = assay: Cytotoxicity against human KM12 cells after 48 hrs by SRB assay; format: functional; details: KM12, 48 h
[17] = Cytotoxicity against human SW620 cells after 48 hrs by SRB assay; format: functional; details: SW-620, 48 h
[18] = Cytotoxicity against human LOXIMVI cells after 48 hrs by SRB assay; format: functional; details: LOX IMVI
MDA-MB-435 = assay: Cytotoxicity against human MDA-MB-435 cells after 48 hrs by SRB assay; format: functional; details: MDA-MB-435, 48 h
SK-MEL-2 = assay: Cytotoxicity against human SK-MEL-2 cells after 48 hrs by SRB assay; format: functional; details: SK-MEL-2, 48 h
[19] = Cytotoxicity against human UACC62 cells after 48 hrs by SRB assay; format: functional; details: UACC-62, 48 h
[20] = Cytotoxicity against human OVCAR5 cells after 48 hrs by SRB assay; format: functional; details: OVCAR-5, 48 h, read-out: LC50 (the source's name)
[21] = Cytotoxicity against human NCI-ADR-RES cells after 48 hrs by SRB assay; format: functional
Albumin [22] = target: T1, Albumin (Homo sapiens, UniProt P02768); assay: Binding affinity to human serum albumin assessed Stern-Volmer quenching constant at 0.25 to 2 uM at 298 K by fluorescence microscopic analysis; format: ADME; details: isolated protein
T1 sequence (P02768 whole entry): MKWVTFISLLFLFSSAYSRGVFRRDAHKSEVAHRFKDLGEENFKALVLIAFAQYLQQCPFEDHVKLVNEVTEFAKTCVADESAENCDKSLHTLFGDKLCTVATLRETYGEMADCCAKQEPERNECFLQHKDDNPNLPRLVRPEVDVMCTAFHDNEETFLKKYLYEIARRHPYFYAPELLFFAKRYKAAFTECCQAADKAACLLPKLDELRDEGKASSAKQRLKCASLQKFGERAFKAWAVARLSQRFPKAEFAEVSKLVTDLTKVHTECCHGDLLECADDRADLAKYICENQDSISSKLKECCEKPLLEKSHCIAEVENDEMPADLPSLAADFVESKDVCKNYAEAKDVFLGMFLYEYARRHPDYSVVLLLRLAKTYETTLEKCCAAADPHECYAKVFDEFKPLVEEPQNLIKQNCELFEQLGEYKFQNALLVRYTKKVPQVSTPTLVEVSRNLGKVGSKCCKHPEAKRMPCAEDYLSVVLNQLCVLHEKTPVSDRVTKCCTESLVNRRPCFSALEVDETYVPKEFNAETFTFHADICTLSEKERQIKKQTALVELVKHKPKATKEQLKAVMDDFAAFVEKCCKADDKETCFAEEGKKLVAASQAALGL

Albumin [23] = target: T1, Albumin; assay: Binding affinity to human serum albumin assessed Stern-Volmer quenching constant at 0.25 to 2 uM at 308 K by fluorescence microscopic analysis; format: ADME; details: isolated protein
Albumin [24] = target: T1, Albumin; assay: Binding affinity to human serum albumin at 0.25 to 2 uM at 288 K by fluorescence microscopic analysis; format: ADME; details: isolated protein
Albumin [25] = target: T1, Albumin; assay: Binding affinity to human serum albumin assessed as fluorescence quenching in steady state at 0.25 uM at 303 K by fluorescence microscopic analysis; format: ADME; details: isolated protein
Albumin [26] = target: T1, Albumin; assay: Binding affinity to human serum albumin at 0.25 uM at 303 K by fluorescence microscopic analysis in the presence of Cu2+; format: ADME; details: isolated protein
Albumin [27] = target: T1, Albumin; assay: Binding affinity to human serum albumin at 0.25 uM at 303 K by fluorescence microscopic analysis in the presence of Zn2+; format: ADME; details: isolated protein
[28] = Antiproliferative activity against human NCI-ADR-RES cells at 10'5 M; format: functional
[29] = Antiproliferative activity against human PC3 cells at 10'5 M; format: functional, PC-3
[30] = Antiproliferative activity against human OVCAR4 cells at 10'5 M; format: functional, OVCAR-4
[31] = read-out: LC50 (the source's name)

Work on `O=C(/C=C/c1ccccc1)n1c(-c2ccc(Cl)cc2)nc2ccccc21` yielded a growth at 10 µM [1] of -31.1%, a growth at 10 µM [2] of -39.4% and a growth at 10 µM [3] of 5.08%. The growth at 10 µM [4] was -64.4%, the growth at 10 µM [5] was 10.4% and the growth at 10 µM [6] was -31.3%. The growth at 10 µM (ACHN) was -49.9%, the growth at 10 µM [7] was -39.5% and the growth at 10 µM [8] was -65.2%. It also gave a growth at 10 µM [9] of 18.6%, a growth at 10 µM [10] of 11.1% and a growth at 10 µM [11] of 20%. It also gave a growth at 10 µM (T47D) of -4.25%, a GI50 (K562) of 2090 nM and a TGI (K562) of 11.8 µM. The CC50 (K562; [31]) was > 100 µM, the GI50 [12] was 1130 nM and the TGI [12] was 6.73 µM. The CC50 [12, 31] was > 100 µM, the GI50 (NCI-H23) was 2170 nM and the TGI (NCI-H23) was 6 µM. The CC50 (NCI-H23; [31]) was > 100 µM, the GI50 (NCI-H322M) was 1910 nM and the TGI (NCI-H322M) was 4.89 µM. For the same compound, the CC50 (NCI-H322M; [31]) was 20 µM, the GI50 [13] was 1230 nM and the TGI [13] was 2640 nM. The CC50 [13, 31] was 5.65 µM, the GI50 [14] was 1410 nM and the TGI [14] was 2780 nM. It also gave a CC50 [14, 31] of 5.49 µM, a GI50 [15] of 1800 nM and a TGI [15] of 3.45 µM. For the same compound, the CC50 [15, 31] was 6.61 µM, the GI50 [16] was 1210 nM and the TGI [16] was 2880 nM. It also gave a CC50 [16, 31] of 6.9 µM, a GI50 (HT-29) of 1340 nM and a TGI (HT-29) of 7.05 µM. For the same compound, the CC50 (HT-29; [31]) was 29.8 µM, the GI50 (KM12) was 1510 nM and the TGI (KM12) was 3.71 µM. For the same compound, the CC50 (KM12; [31]) was 9.16 µM, the GI50 [17] was 1440 nM and the TGI [17] was 2930 nM. For the same compound, the CC50 [17, 31] was 5.97 µM, the GI50 [18] was 1600 nM and the TGI [18] was 3.22 µM. The CC50 [18, 31] was 6.5 µM, the GI50 (MDA-MB-435) was 1900 nM and the TGI (MDA-MB-435) was 5.05 µM. It also gave a CC50 (MDA-MB-435; [31]) of 19.6 µM, a GI50 (SK-MEL-2) of 1110 nM and a TGI (SK-MEL-2) of 3.04 µM. For the same compound, the CC50 (SK-MEL-2; [31]) was 8.32 µM, the GI50 [19] was 1470 nM and the TGI [19] was 3.42 µM. The CC50 [19, 31] was 7.93 µM, the CC50 [20] was 49.7 µM and the GI50 [21] was 750 nM. It also gave a TGI [21] of 10.3 µM, a CC50 [21, 31] of 62.1 µM and a KSV (Albumin [22]) of 1.37 ×10⁵ L/mol. It also gave a KSV (Albumin [23]) of 1.14 ×10⁵ L/mol, a K (Albumin [24]) of 2.24 ×10⁵ /mol and a K (Albumin [25]) of 5.68 ×10³ /mol. For the same compound, the K (Albumin [26]) was 2.44 ×10³ /mol, the K (Albumin [27]) was 2.26 ×10³ /mol and the “growth inhibition (GI)” value [28] was 89.22%. For the same compound, the “growth inhibition (GI)” value [29] was 93.91% and the “growth inhibition (GI)” value [30] was 69.96%.
